Laboratory results published in patent US20250127918A1, “SITE-SELECTIVE CONJUGATION OF A PHARMACEUTICAL AGENT TO AN ANTIBODY USING AN AFFINITY PEPTIDE” (priority 2023, published 2025).

How the values were obtained:
Fc fragment of IgG1 = assay: Binding affinity of Z33 and variants to IgG Fc
Trastuzumab = biological target: T1, Trastuzumab (Homo sapiens, UniProt P01857, D239E/L241M); assay: Determination of the modification sites (Trypsin/Lys-C digest, nLC-MS/MS); format: biochemical; conditions: Tmab, LC-MS/MS sequencing
T1 construct: purchased Syd Labs Inc; MedChemExpress LLC; Bio X Cell
Experimental: The modified trastuzumab (30 μg) from entry 6 of 5.2.1 was diluted to 36 μL using Tris buffer (50 mM, pH 8.0). PNGase F (New England BioLabs, 200 units) was added to the solution and incubated at 37° C. for 4 hours. The reaction solution was then brought to room temperature, and urea solution (6M in 50 mM Tris pH 8.0, 14 μL) and DTT solution (200 mM, 1.5 μL) were added and incubated at 37° C. for 1 hour. After that, iodoacetamide (800 mM, 1 μL) was added and incubated at room temperature for 30 minutes. The resulting solution was diluted 2-fold using Tris buffer (50 mM, pH 8.0), and then Trypsin/Lys-C mix (Promega, 0.2 μg/μL in solution, 6 μL) was added and incubated at 37° C. for 18 hours. The reaction solution was then purified by pipetting with Ziptip, lyophilized, and analyzed by nLC-MS/MS (using nLC-MS/MS method B). Obtained raw data were analyzed using Thermo Scientific FreeStyle™ 1.6. […]
The modified trastuzumab (30 μg) from entry 6 of 5.2.1 was diluted to 36 μL using Tris buffer (50 mM, pH 8.0). […] The reaction solution was then purified by pipetting with Ziptip, lyophilized, and analyzed by nLC-MS/MS (using nLC-MS/MS method B). Obtained raw data were analyzed using Thermo Scientific FreeStyle™ 1.6. […]

[1] = Whole-body biodistribution of [89Zr]Zr-labelled affinity peptides after subcutaneous injection (gamma counter); conditions: mouse, in vivo, sc
Experimental: Additionally, 4 mice were sacrificed at each of these time points for determining the distribution in each organ using a gamma counter.
First, 1, 2, 3 were dissolved in HEPES buffer (100 mM in ultra-trace elemental water; Fisher Scientific, pH 6.7) to prepare a 2 mg/mL solution of each.
The obtained samples were incubated with 37 MBq of [^89Zr]Zr-oxalate (obtained from Mallinckrodt Institute of Radiology, Nuclear Pharmacy Cyclotron; dilution in 0.5 M HEPES, pH 6.7) for 1 hour in the wet ice under mild agitation. Purification was then performed using a Zeba spin column (0.5 mL, 7K MWCO) to remove the non-complexed [^89Zr]Zr-oxalate, for 5 min at 1,200 rcf. Instant-thin layer chromatography (iTLC) was performed to verify the success of the radiolabeling with elution in 0.1 M citrate buffer.

mouse IgG = assay: Azido transfer to mouse IgG in mouse serum (E1/E2 sandwich ELISA); format: biochemical; conditions: after 2 h of incubation in mouse sera
Excerpt: Two sandwich ELISA assays have been developed in-house, one for the detection of the azido moiety conjugated mouse IgG (mIgG, E1), the other one for the detection of the whole mIgGs (modified and unmodified) in the sample (E2). Both E1 and E2 were run simultaneously on a same plate, using the same initial stock sample, and were processed in parallel at the same time for every steps. The same azido-free capture goat anti-mouse polyclonal antibody (Creative Diagnostics) was used for both E1-E2 assays at 1 μg/mL (100 μL per well) for incubation overnight at 4° C. Washing steps were performed thoroughly between each incubation by using 0.02% Tween 20-PBS. […] Absorbances were measured at 450 nm and 540 nm (A0=A450 nm-A540 nm) using a Spark microplate reader (Tecan, USA). The background noise (Ablank) from the serum was subtracted to get the final absorbance of the sample (Asample=A0-Ablank). The ratio Asample (E1)/Asample (E2) was calculated to estimate the percentage of azido transfer on the total amount of IgG in the sample.
Two sandwich ELISA assays have been developed in-house, one for the detection of the azido moiety conjugated mouse IgG (mIgG, E1), the other one for the detection of the whole mIgGs (modified and unmodified) in the sample (E2). […] Absorbances were measured at 450 nm and 540 nm (A0=A450nm−A540nm) using a Spark microplate reader (Tecan, USA). […]

Mouse IgG1 = assay: Small bioconjugation handle installation to other IgGs (Q-ToF LC-MS); format: biochemical; conditions: 20 equivalents, room temperature
Sequence of Mouse IgG1 (P01868 98-324 limits assumed): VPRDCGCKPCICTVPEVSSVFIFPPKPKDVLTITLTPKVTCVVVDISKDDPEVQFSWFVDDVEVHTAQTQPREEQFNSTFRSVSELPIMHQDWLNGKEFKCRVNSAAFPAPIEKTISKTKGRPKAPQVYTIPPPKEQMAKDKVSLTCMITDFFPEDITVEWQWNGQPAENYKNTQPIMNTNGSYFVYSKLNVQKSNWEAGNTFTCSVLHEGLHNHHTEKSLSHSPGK
Experimental: Reactions were performed on a 10 μL scale using 0.2 mL PCR tubes (FIG. 64). First, the electrophile-attached Z33 peptide reagent was dissolved in water to prepare a 2 mg/mL solution. IgG (human WN1 (prepared as previously described (ChemBioChem, 19, 2039-2044 (2018)), denosumab (Invitrogen), dupilumab (Invitrogen), or mouse IgG1 (Invitrogen, subtype controlled)), electrophile-attached Z33 peptide reagent (2 mg/mL), HEPES buffer (pH 8.5), and NaCl solution were added to achieve final concentrations of 5 μM, 100 μM, 100 mM, and 200 mM. The contents were mixed using a 5 μL pipette and incubated at room temperature in the dark for 24 hours. The resulting reaction solution was quenched with a 100 mM Tris buffer and analyzed by LC-MS (FIGS. 53A to 53D, Table 10). Sample preparation for LC-MS analysis was performed in the same manner as previously described.
Reactions were performed on a 10 μL scale using 0.2 mL PCR tubes. First, the electrophile-attached Z33 peptide reagent was dissolved in water to prepare a 2 mg/mL solution. Denosumab (Invitrogen), dupilumab (Invitrogen), or mouse IgG1 (Invitrogen, subtype controlled)), electrophile-attached Z33 peptide reagent (2 mg/mL), HEPES buffer (pH 8.5), and NaCl solution were added to achieve final concentrations of 5 μM, 100 μM, 100 mM, and 200 mM. […] The resulting reaction solution was quenched with a 100 mM Tris buffer and analyzed by LC-MS. […]

With “FNMQQQRRFYEALHD PNLNHcyEQRNAKIKSI RDD [PEL-21]” the Kd (Fc fragment of IgG1) was roughly 60 nM, the Site of modification (Trastuzumab) was “Lys-317” and the “Time detectable in the kidneys” value [1] was “up to 240 hours”. The “IgG conversion rate in mouse sera” value (mouse IgG) was 33±1%, the “Light chain total conversion” value (Mouse IgG1; HEPES pH 8.5, first column so headed) was 2% and the “Light chain total conversion” value (Mouse IgG1; HEPES pH 8.5, second column so headed) was 69%.
